Converted amounts (≈) assume the structure as drawn.
How the values were obtained:
[1] = test system: Rattus norvegicus; experiment: Anti-inflammatory activity against carrageenan-induced paw edema in Sprague-Dawley rat at 3 mg/kg, iv after 5 hrs; assay type: functional, organism-based; set-up: dose 3 mg/kg, route intravenous
[2] = test system: Rattus norvegicus; experiment: Anti-inflammatory activity against carrageenan-induced paw edema in Sprague-Dawley rat at 3 mg/kg, iv after 3 hrs; assay type: functional, organism-based; set-up: dose 3 mg/kg, route intravenous
[3] = biological target: T1, Prostaglandin G/H synthase 2 (Homo sapiens, UniProt P35354)
T1 sequence (P35354 whole entry): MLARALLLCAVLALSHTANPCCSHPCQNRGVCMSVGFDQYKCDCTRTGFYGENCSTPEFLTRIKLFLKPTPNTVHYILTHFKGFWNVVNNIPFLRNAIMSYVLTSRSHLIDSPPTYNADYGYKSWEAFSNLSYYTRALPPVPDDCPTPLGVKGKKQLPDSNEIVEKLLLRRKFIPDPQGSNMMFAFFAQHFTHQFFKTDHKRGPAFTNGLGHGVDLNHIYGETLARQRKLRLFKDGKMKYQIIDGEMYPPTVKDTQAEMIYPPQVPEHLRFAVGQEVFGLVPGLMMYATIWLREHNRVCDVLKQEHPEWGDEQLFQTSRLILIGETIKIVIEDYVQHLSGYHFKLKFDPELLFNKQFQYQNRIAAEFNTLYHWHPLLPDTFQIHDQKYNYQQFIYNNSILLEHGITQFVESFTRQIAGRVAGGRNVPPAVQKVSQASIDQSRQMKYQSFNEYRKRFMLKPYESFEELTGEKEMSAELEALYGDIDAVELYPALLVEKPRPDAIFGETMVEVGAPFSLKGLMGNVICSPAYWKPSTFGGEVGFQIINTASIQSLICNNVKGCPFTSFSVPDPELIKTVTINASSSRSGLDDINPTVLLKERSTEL

[4] = biological target: T2, Prostaglandin G/H synthase 1 (Ovis aries, UniProt P05979); experiment: Inhibition of COX1; set-up: species or system Homo sapiens
T2 sequence (P05979 whole entry): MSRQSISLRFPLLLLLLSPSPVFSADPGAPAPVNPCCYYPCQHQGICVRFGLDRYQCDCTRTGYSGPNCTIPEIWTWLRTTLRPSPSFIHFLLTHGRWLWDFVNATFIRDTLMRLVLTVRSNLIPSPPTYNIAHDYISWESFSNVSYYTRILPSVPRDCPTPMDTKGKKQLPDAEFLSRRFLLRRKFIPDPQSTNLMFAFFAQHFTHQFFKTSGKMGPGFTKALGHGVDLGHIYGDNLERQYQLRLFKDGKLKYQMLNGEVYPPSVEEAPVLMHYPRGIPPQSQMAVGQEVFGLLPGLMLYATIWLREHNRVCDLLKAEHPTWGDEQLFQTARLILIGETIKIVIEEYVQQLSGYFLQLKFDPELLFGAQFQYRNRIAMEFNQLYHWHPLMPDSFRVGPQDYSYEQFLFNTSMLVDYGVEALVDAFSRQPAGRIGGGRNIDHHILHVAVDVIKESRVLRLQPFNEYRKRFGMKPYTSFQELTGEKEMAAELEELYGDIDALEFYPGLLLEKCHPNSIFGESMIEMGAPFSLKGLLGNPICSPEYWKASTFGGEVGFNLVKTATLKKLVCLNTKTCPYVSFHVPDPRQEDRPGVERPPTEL

[5] = Aqueous solubility of the compound; assay type: physicochemical; conditions: water
[6] = test system: Rattus norvegicus; experiment: Gastric toxicity in rat at 20 mg/kg, iv; assay type: organism-based; set-up: dose 20 mg/kg, route intravenous; conditions: in vivo
[7] = test system: Rattus norvegicus; experiment: Gastric toxicity in rat at 40 mg/kg, iv; assay type: organism-based; set-up: dose 40 mg/kg, route intravenous; conditions: in vivo

Row | Compound | inhibition in vivo at 3 mg/kg [1] | inhibition in vivo at 3 mg/kg [2] | IC50 [3] | IC50 [4] | solubility [5] | Activity [6] | Activity [7]
1 | Cc1ccc(-c2cc(C(F)(F)F)nn2-c2ccc(-c3nnn[nH]3)cc2)cc1 | 34.7% | 40.2% | 1.9 nM | 4.1 nM | 100 mg/mL (≈ 270 mM) | Not Active | –
2 | O=C1OCC(c2ccc(-c3nn[nH]n3)cc2)=C1c1ccccc1 | 28% | 34.1% | 1.8 nM | 3.8 nM | 125 mg/mL (≈ 411 mM) | Not Active | –
3 | O=C([O-])Cc1ccccc1Nc1c(Cl)cccc1Cl.[Na+] [DICLOFENAC SODIUM] | – | – | – | – | – | 22.8 | 51.5
4 | CCC(=O)[N-]S(=O)(=O)c1ccc(-c2c(-c3ccccc3)noc2C)cc1.[Na+] [PARECOXIB SODIUM] | 42% | 62.8% | – | – | – | – | Not Active

Source: ChEMBL document CHEMBL1146869 (Bioorg Med Chem Lett, 2006)
